Measured values: patent publication US7030087B2, “Synthetic approach to designed chemical structures” (priority 1996, dated 2006)

Legend:
[1] = tested on: endothelial cells (FBHEC, HUVEC); test: Endothelial cell proliferation assay of βpeptides 1–24 (FIG. 7); assay type: cell-based; details: for effectiveness at decreasing endothelial cell growth: 0.26 micromolar
Description: FIG. […] FIG. 7A provides ^3H-Thymidine incorporation data for FBHEC cells and FIG. 7B provides ^3H-Thymidine incorporation data for HUVEC cells.
βpeptides 1–24 were tested in an endothelial cell proliferation assay using ^3H-thymidine incorporation. […]

P. aeruginosa = test: Bactericidal activity assay; assay type: cell-based, Pseudomonas aeruginosa type 1; details: for Bactericidal Activity, % killing: 1.2 × 10^−7 M Peptide, 5 × 105 P. aeruginosa; for Bactericidal Activity, % killing at the effective dose: at the Ed for the same peptide; for Bactericidal Activity, Ed, Effective M dose: dose at which the % in brackets was found
Excerpt: Bacteria: P. aeruginosa type 1 is a clinical isolate maintained in the laboratory. The isolate remains a smooth strain and was serotyped by the scheme of Homma. The Pseudomonas strain was maintained by monthly transfer on blood agar plates.
The peptides can be assayed for bactericidal activity against a variety of organisms such as Pseudomonas aeruginosa type 1, P. cepacia ATCC 25608, E. coli B, and Staphylococcus aureus 502A by standard methods.
Pseudomonas aeruginosa type 1 is a clinical isolate. The isolate remains a smooth strain and was serotyped by the scheme of Homma (Jpn. J. Exp. Med. 46:329, 1976). A rough strain, E. coli B and S. aureus 502A were obtained from Paul Quie, University of Minnesota (Minneapolis, Minn.). The characteristics of the S. aureus strain have been described by Shinefield et al. (Amer. J. Dis. Chil. 105:646, 1963). Pseudomonas cepacia ATCC 25608 can be purchased from the ATCC. S. aureus and E. coli were maintained on nutrient agar plates and the Pseudomonas strains were maintained on blood agar plates.
Pyrogen-free solutions were used throughout the assay and all methods that follow. Log phase bacteria were prepared from a culture in brain heart infusion broth (Hovde et al. Infect. Immun. 54:142–148, 1986) and bacteria were washed and resuspended in saline with adjustment to an optical density at 650 nm to provide a yield of about 3×10^8 CFU/ml. Bacteria were diluted 1:10 in 0.08M citrate phosphate buffer, pH 5.6 or pH 7.0, for use in the assay. S. aureus rapidly lost viability in the pH 5.6 buffer and was studied only at pH 7.0. Bactericidal activity was determined by dose response over peptide concentrations ranging from about […] to about 4.1×10^−9M. Bactericidal activity was determined by dose response, preferably determining LD50 by linear regression.

[2] = tested on: endotoxin from E. coli 055:B5; test: Limulus amoebocyte lysate assay (E-TOXATE), endotoxin neutralization; assay type: biochemical; details: for Endotoxin Neutralization, % neutralization: 5.0 × 10^−6 M Peptide; for Endotoxin Neutralization, % neutralization / Endotoxin Neutralization, % at the effective dose / Endotoxin Neutralization, Ed, Effective M dose: Table 4; for Endotoxin Neutralization, % at the effective dose: at the Ed
Description: The peptides were tested for their ability to neutralize endotoxin. Quantitative endotoxin activities for these peptides were measured by Limulus amoebocyte lysate assay.
Limulus amoebocyte lysate assay: The ability of synthetic peptides to neutralize endotoxin was detected with the E-TOXATE kit manufactured by Sigma Chemicals (St. Louis, Mo.). […] Peptide or B/PI was incubated with LPS at room temperature for 5 min in 100 ul of a 1:2 dilution of pyrogen-free saline (pH 6.4). The reaction was started by addition of 100 ul of amoebocyte lysate and the final volume was 200 ul. Assuming a 10,000 molecular weight for LPS, the approximate molar ration of B/PI:LPS at neutralization was 3000 to 1.
The peptides were tested according to the method provided above. […] BG38L was used as a positive control in these experiments.

EC (endothelial cells) = test: EC proliferation, 3[H]thymidine incorporation assay; assay type: cell-based
Description: (§1) Since the in vivo situation of tumor associated EC involves the low expression or even absence of ICAM-1, the next set of experiments aimed to study the ability to reinduce ICAM-I expression after bFBF preincubation. […] In these experiments, HUVEC were pretreated for 3 days with bFGF, subsequently PF4 was added for 3 days and, where indicated in the last 16 hours of culture 4 ng/ml TNFα was added. Human umbilical vein derived endothelial cells (HUVEC) were harvested from normal human umbilical cords by perfusion with 0.125% trypsin/EDTA as described previously. Cells were cultured in fibronectin (FN) coated tissue culture flasks in culture medium (RPMI-1640 with 20% human serum (HS), supplemented with 2 mM glutamine and 100 U/ml penicillin and 0.1 mg/ml streptomycin). Immunofluorescence using indirect PE-conjugated reagents required three separate incubations. 1×10^5 EC were fixed for 1 hour in 1% paraformaldehyde, resuspended in 20 μl appropriately diluted Mab and incubated for 1 hour on ice. Subsequently, cells were washed two times in PBS/BSA (0.1%) and incubated for another 30 minutes with biotinylated rabbit-anti-mouse Ig (Dako, Glostrup, Denmark). After another 2 washings, cells were incubated with streptavidin-phycoerythrin conjugate (Dako). Stained cells were analyzed on a FACScan flowcytometer. Data analysis was performed using PCLysys software (Becton Dickinson, Mountain View, Calif.). Statistical significance of observed differences was determined using the Student's t-test.
EC proliferation was measured using a ^3[H]thymidine incorporation assay. EC were seeded in flatbottomed 96-well tissue culture plates (5000 cells/well) and grown for 3 days, in culture medium. In some cultures the proliferation of EC was enhanced by incubation with 10 ng/ml bFGF. During the list 6 hours of the assay, the culture was pulsed with 0.5 μCi [methyl-^3H]thymidine/well. Results are expressed as the arithmetic mean counts per minute (cpm) of triplicate cultures.

ICAM-1 = ICAM-1 expression on endothelial cells (immunofluorescence, FACScan); assay type: cell-based, human; details: 10 ng/ml bFGF for 3 days, 100 μg/ml added simultaneously
Description: In a first series of experiments, PF4 and βpep peptides were tested for their ability to prevent bFGF (fibroblast growth factor) mediated downregulation of ICAM-1. […] Simultaneously 100 μg/ml of each PF4, βpep-14, βpep-16, or medium was added. Mean ICAM-1 fluorescence intensity values were determined.
as §1
The energy of EC to stimulation with inflammatory cytokines was the subject of a next series of experiments. For these experiments, HUVEC (human vascular endothelial cells) were pretreated with 10 ng/ml bFGF for 3 days. Subsequently, cells are subcultured for 3 days with […] in the presence of PF4. For the last 16 hours of the culture 4 ng/ml TNFα was added to induce upregulation of ICAM-1. […] The regulation of ICAM-1 at the protein level was confirmed in Northern blot analysis for detection of ICAM-1 message. In these experiments, HUVEC were cultured for 3 days with bFGF and treated for the last 4 and 24 hours with PF4 (100 μg/ml). TNFα was added 2 hours before isolation of RNA. RNA from a subconfluent EC cultures (75 cm^2 Petri-dishes) incubated with bFGF for different time-points was isolated using an RNA-zol kit (Campro Scientific, Houston, Tex.). Total RNA (10 μg) for each sample was separated in a 0.8% formaldehyde-denaturing gel, transferred to nitrocellulose (Hybond N+, Amersham International, Amersham, UK) and hybridized to a ^32P-labelled 1.9 Kb c-DNA probe, containing the functional sequence of the human ICAM-1 gene (a gift from Dr. B. Seed). Membranes were washed at a high stringency in 0.2×SSC, 0.1% SDS at 50° C. for 1 hour. Filters were exposed to X-ray films (Kodak X-omat, Eastman Kodak Company, Rochester, N.Y.) using an intensifying screen at −80° C. for not less than 12 hr. Autoradiograms were subjected to scanning using a laser densitometer (Model GS670, Bio-Rad, Hercules, Calif.) and data were analysed with the Molecular Analyst PC™ software. The intensity of the major ICAM-1 mRNA transcript was normalized with respect to actin mRNA expression used as a control.

[3] = 0.02 U (0.2 pg) endotoxin from E. coli 055:B5
[4] = dose at which the % in brackets was found

Sequence	control of endothelial cell proliferation (in words) [1]	Bactericidal Activity, % killing (P. aeruginosa) [%]	Bactericidal Activity, % killing at the effective dose (P. aeruginosa)	Bactericidal Activity, Ed, Effective M dose (P. aeruginosa) [nM]	endotoxin neutralizing activity (in words) [2]	Endotoxin Neutralization, % neutralization [2, 3] [%]	Endotoxin Neutralization, % at the effective dose [2] [%]	Endotoxin Neutralization, Ed, Effective M dose [2, 4] [µM]	effectiveness at decreasing endothelial cell growth [1]	other results
ANIKLSVEMKLFKRHLKWKIIVKLNDGRELSLD [βpep-8]	little cell proliferation activity	0	(28.1), n = 3%	960	best endotoxin neutralizing activity	100	77.9	1.2	–	Endotoxin Neutralizing Activity, % neutralization ([2]; 5.0 × 10^−5 M peptide, 0.02 U (0.2 pg) endotoxin from E. coli 055:B5, Table 3): 100%; Endotoxin neutralization, ED, Effective M dose ([2]; Table 3, dose at which the % in brackets was found): 1.2 µM
SIQDLKVSLNLFRKQAKWKIIVKLNDGRELSLD [βpep-23]	–	0	45.8%	480	best endotoxin neutralizing activity	100	65.7	1.2	about 30%	–
SIQDLNVSMKLFRKQAKWKIIAKLNDGRELSLD [βpep-16]	–	0	24.3%	960	–	100	16.5	1.2	–	EC proliferation in vitro (in words) (EC (endothelial cells)): angiostatic; (3H)-thymidine incorporation (EC (endothelial cells); expt 2 (first, r11), 1 μg/ml, 10 ng/ml bFGF, medium 29079 ± 2506): 35447 ± 2621 cpm; (3H)-thymidine incorporation (EC (endothelial cells); expt 2 (first, r11), 1 μg/ml, no bFGF, medium 14296 ± 2490): 15039 ± 2020 cpm; (3H)-thymidine incorporation (EC (endothelial cells); expt 2 (first, r11), 10 μg/ml, 10 ng/ml bFGF, medium 29079 ± 2506): 33663 ± 2572 cpm; (3H)-thymidine incorporation (EC (endothelial cells); expt 2 (first, r11), 10 μg/ml, no bFGF, medium 14296 ± 2490): 11881 ± 2545 cpm; (3H)-thymidine incorporation (EC (endothelial cells); expt 2 (first, r11), 100 μg/ml, 10 ng/ml bFGF, medium 29079 ± 2506): 7852 ± 875 cpm; (3H)-thymidine incorporation (EC (endothelial cells); expt 2 (first, r11), 100 μg/ml, no bFGF, medium 14296 ± 2490): 4929 ± 749 cpm; (3H)-thymidine incorporation (EC (endothelial cells); expt 2 (second, r19), 1 μg/ml, 10 ng/ml bFGF, medium 52808 ± 4092): 47727 ± 447 cpm; (3H)-thymidine incorporation (EC (endothelial cells); expt 2 (second, r19), 1 μg/ml, no bFGF, medium 6780 ± 713): 7450 ± 737 cpm; (3H)-thymidine incorporation (EC (endothelial cells); expt 2 (second, r19), 10 μg/ml, 10 ng/ml bFGF, medium 52808 ± 4092): 44919 ± 2081 cpm; (3H)-thymidine incorporation (EC (endothelial cells); expt 2 (second, r19), 10 μg/ml, no bFGF, medium 6780 ± 713): 6148 ± 1370 cpm; (3H)-thymidine incorporation (EC (endothelial cells); expt 2 (second, r19), 100 μg/ml, 10 ng/ml bFGF, medium 52808 ± 4092): 27071 ± 3277 cpm; (3H)-thymidine incorporation (EC (endothelial cells); expt 2 (second, r19), 100 μg/ml, no bFGF, medium 6780 ± 713): 2669 ± 370 cpm; bFGF mediated downregulation of ICAM-1 (in words) (ICAM-1): complete block of bFGF mediated downregulation
SIQFLKVSLNLDRKQAKWKIIVKLNDGRELSLD [βpep-24]	very good at controlling cell proliferation	–	–	–	–	–	–	–	about 30%	–
